Earlier results as cited in PubChem BioAssay AID1259409 (Chemical Carcinogenesis Research Information System (CCRIS), 2018).

Tested on: rodent chemically induced tumor inhibition, incidence and multiplicity
Assay: CCRIS tumor inhibitor studies

For `O=C1O[C@H]([C@@H](O)CO)C(O)=C1O`, the “tumour outcome (control, treated, inhibition, significance)” value (Carcinogen: 7,12-DIMETHYLBENZ[A]ANTHRACENE, 57-97-6, Dose [Inhibitor]: 0, 5000 PPM IN DRINKING WATER FOR 5 MO (STUDY DURATION: 5 MO), Route [Inhibitor]: ORAL, Species: RAT, Strain/Sex: SWISS/FEMALE, Target Tissue: Type of Lesion: MAMMARY GLAND: CRIBRIFORM CARCINOMA, Dose [Carcinogen]: 10 MG ONCE, Promoter: NONE USED) is given as 85%, 50%, 41%, not calculated, the “tumour outcome (control, treated, inhibition, significance)” value (Carcinogen: 7,12-DIMETHYLBENZ[A]ANTHRACENE, 57-97-6, Dose [Inhibitor]: 0.2% IN 0.25 ML OF 20:80 WATER-ACETONE DAILY FOR 20 D BEGINNING 1 D POST CARCINOGEN TREATMENT (STUDY DURATION: 19 WK), Route [Inhibitor]: DERMAL, Species: MOUSE, Strain/Sex: ICR/FEMALE, Target Tissue: Type of Lesion: SKIN: PAPILLOMA, Dose [Carcinogen]: 0.125 MG IN 0.25 ML ACETONE ONCE, Promoter: CROTON OIL, 8001-28-3) is given as 43%, 48%, -12%, not significant and the “tumour outcome (control, treated, inhibition, significance)” value (Carcinogen: 7,12-DIMETHYLBENZ[A]ANTHRACENE, 57-97-6, Dose [Inhibitor]: 1000 UG APPLIED ONCE 5 MIN PRIOR TO CARCINOGEN DOSE (STUDY DURATION: 28 WK), Route [Inhibitor]: DERMAL, Species: MOUSE, Strain/Sex: CD-1/FEMALE, Target Tissue: Type of Lesion: SKIN: PAPILLOMA, Dose [Carcinogen]: 2.56 UG ONCE, Promoter: 12-O-TETRADECANOYLPHORBOL-13-ACETATE, 16561-29-8) is given as 82%, 56%, 32%, not calculated. The “tumour outcome (control, treated, inhibition, significance)” value (Carcinogen: 17BETA-ESTRADIOL, 50-28-2, Dose [Inhibitor]: 1% (W/V) IN REVERSED OSMOSIS DEIONIZED DRINKING WATER FOR 103 D STARTING 93 D AFTER START OF STUDY (STUDY DURATION: 196, Route [Inhibitor]: ORAL, Species: HAMSTER, Strain/Sex: SYRIAN/MALE, Target Tissue: Type of Lesion: KIDNEY: CARCINOMA, Dose [Carcinogen]: 90% OF 31 MG PELLET AT START OF STUDY AND 90% OF 45 MG PELLET 3 MO LATER, Promoter: NONE USED) was 16/23 (70%), 9/19 (47%), 33%, not significant, the “tumour outcome (control, treated, inhibition, significance)” value (Carcinogen: 17BETA-ESTRADIOL, 50-28-2, Dose [Inhibitor]: 1% (W/V) IN REVERSED OSMOSIS DEIONIZED DRINKING WATER FOR FIRST 92 D OF STUDY (STUDY DURATION: 196 D), Route [Inhibitor]: ORAL, Species: HAMSTER, Strain/Sex: SYRIAN/MALE, Target Tissue: Type of Lesion: KIDNEY: CARCINOMA, Dose [Carcinogen]: 90% OF 31 MG PELLET AT START OF STUDY AND 90% OF 45 MG PELLET 3 MO LATER, Promoter: NONE USED) was 16/23 (70%), 15/17 (88%), -26%, not significant and the “tumour outcome (control, treated, inhibition, significance)” value (Carcinogen: 17BETA-ESTRADIOL, 50-28-2, Dose [Inhibitor]: 1% IN REVERSED OSMOSIS DEIONIZED DRINKING WATER FOR DURATION OF STUDY (STUDY DURATION: 196 D), Route [Inhibitor]: ORAL, Species: HAMSTER, Strain/Sex: SYRIAN/MALE, Target Tissue: Type of Lesion: KIDNEY: CARCINOMA, Dose [Carcinogen]: 90% OF 31 MG PELLET AT START OF STUDY AND 90% OF 45 MG PELLET 3 MO LATER, Promoter: NONE USED) was 16/23 (70%), 10/33 (30%), 57%, p<0.005. The “tumour outcome (control, treated, inhibition, significance)” value (Carcinogen: AMINOPYRENE, 1606-67-3, SODIUM NITRITE, 7632-00-0, Carcinogen: AMINOPYRENE, 1606-67-3, SODIUM NITRITE, 7632-00-0, Dose [Inhibitor]: 7 G/KG OF DIET FOR DURATION OF STUDY (STUDY DURATION: 40 WK), Route [Inhibitor]: ORAL, Species: RAT, Strain/Sex: SPRAGUE-DAWLEY/MALE, Target Tissue: Type of Lesion: LIVER: TUMORS, Dose [Carcinogen]: AMINOPYRENE 1 G/L AND SODIUM NITRITE 1 G/L IN DRINKING WATER 5 D/WK FOR 40 WK, Promoter: NONE USED) was 12/37 (32%), 0/39 (0%), 100%, not calculated, the “tumour outcome (control, treated, inhibition, significance)” value (Carcinogen: AMINOPYRENE, 1606-67-3, SODIUM NITRITE, 7632-00-0, Carcinogen: AMINOPYRENE, 1606-67-3, SODIUM NITRITE, 7632-00-0, Dose [Inhibitor]: 7 G/KG OF DIET FOR DURATION OF STUDY (STUDY DURATION: 40 WK), Route [Inhibitor]: ORAL, Species: RAT, Strain/Sex: SPRAGUE-DAWLEY/MALE, Target Tissue: Type of Lesion: LUNG: TUMORS, Dose [Carcinogen]: AMINOPYRENE 1 G/L AND SODIUM NITRITE 1 G/L IN DRINKING WATER 5 D/WK FOR 40 WK, Promoter: NONE USED) was 25/37 (68%), 13/39 (33%), 51%, not calculated and the “tumour outcome (control, treated, inhibition, significance)” value (Carcinogen: AMINOPYRENE, 1606-67-3, SODIUM NITRITE, 7632-00-0, Carcinogen: AMINOPYRENE, 1606-67-3, SODIUM NITRITE, 7632-00-0, Dose [Inhibitor]: 7 G/KG OF DIET FOR THE DURATION OF STUDY (STUDY DURATION: 40 WK), Route [Inhibitor]: ORAL, Species: RAT, Strain/Sex: SPRAGUE-DAWLEY/MALE, Target Tissue: Type of Lesion: KIDNEY: TUMORS, Dose [Carcinogen]: AMINOPYRINE 1 G/L AND SODIUM NITRITE 1 G/L IN DRINKING WATER 5 D/WK FOR 40 WK, Promoter: NONE USED) was 10/37 (27%), 7/39 (18%), 33%, not calculated. The “tumour outcome (control, treated, inhibition, significance)” value (Carcinogen: BENZO[A]PYRENE, 50-32-8, Dose [Inhibitor]: 0, 10 MG/ML IN DRINKING WATER FOR 6 WK (STUDY DURATION: 9 WK), Route [Inhibitor]: ORAL, Species: MOUSE, Strain/Sex: NIGP(S)/FEMALE, Target Tissue: Type of Lesion: LUNG: ADENOMA, Dose [Carcinogen]: 0.5 MG INJECTED IN THE SCAPULAR REGION OF NEWBORN MICE ONCE, Promoter: NONE USED) was 56%, 35%, 38%, not calculated, the “tumour outcome (control, treated, inhibition, significance)” value (Carcinogen: BENZO[A]PYRENE, 50-32-8, Dose [Inhibitor]: 0, 10 MG/ML IN DRINKING WATER FOR 6 WK (STUDY DURATION: 9 WK), Route [Inhibitor]: ORAL, Species: MOUSE, Strain/Sex: NIGP(S)/MALE, Target Tissue: Type of Lesion: LUNG: ADENOMA, Dose [Carcinogen]: 0.5 MG INJECTED IN THE SCAPULAR REGION OF NEWBORN MICE ONCE, Promoter: NONE USED) was 38%, 24%, 37%, not calculated and the “tumour outcome (control, treated, inhibition, significance)” value (Carcinogen: BENZO[A]PYRENE, 50-32-8, Dose [Inhibitor]: 0.068 MMOL/G IN DIET FOR 5 WK BEGINNING 1 WK PRIOR TO CARCINOGEN DOSE (STUDY DURATION: 21 WK), Route [Inhibitor]: ORAL, Species: MOUSE, Strain/Sex: ICR/HA/FEMALE, Target Tissue: Type of Lesion: FORESTOMACH: TUMOR, Dose [Carcinogen]: 1 MG IN 0.2 ML CORN OIL 2/WK FOR 4 WK, Promoter: NONE USED) was 100%, 95%, 5%, not significant. The “tumour outcome (control, treated, inhibition, significance)” value (Carcinogen: DIETHYLNITROSAMINE, 55-18-5, Dose [Inhibitor]: 0, 3 G/L IN DRINKING WATER BEGINNING 1 D PRIOR TO FIRST CARCINOGEN DOSE AND CONTINUING TO 2 D POST LAST CARCINOGEN DOSE, Route [Inhibitor]: ORAL, Species: RAT, Strain/Sex: BD6/FEMALE, Target Tissue: Type of Lesion: ESOPHAGUS: TUMOR, Dose [Carcinogen]: 80 MG/KG BW 1/WK FOR 8 WK, Promoter: NONE USED) was 31%, 28%, 10%, not significant.
